In this experiment the target is B-Raf (V600E)-kinase (Homo sapiens (Human), UniProt P15056, V600E). Kind of experiment: Kinase test B-RAF (V600E). The experiment is classed as biochemical. Conditions: B-RAF (V600E) kinase test, 250 μM ATP. Summed up:
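B-Raf (V600E) (0.5 ng) preincubated with compound 24 h at RT (5% DMSO), then reacted 60 min at RT with 250 μM ATP and biotinylated MEK1 as substrate. Phospho-MEK (Ser217/221) captured on streptavidin and detected by europium time-resolved fluorescence; IC50 from dose-response curves.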
B-Raf (V600E)-kinase, sequence (P15056 whole entry V600E): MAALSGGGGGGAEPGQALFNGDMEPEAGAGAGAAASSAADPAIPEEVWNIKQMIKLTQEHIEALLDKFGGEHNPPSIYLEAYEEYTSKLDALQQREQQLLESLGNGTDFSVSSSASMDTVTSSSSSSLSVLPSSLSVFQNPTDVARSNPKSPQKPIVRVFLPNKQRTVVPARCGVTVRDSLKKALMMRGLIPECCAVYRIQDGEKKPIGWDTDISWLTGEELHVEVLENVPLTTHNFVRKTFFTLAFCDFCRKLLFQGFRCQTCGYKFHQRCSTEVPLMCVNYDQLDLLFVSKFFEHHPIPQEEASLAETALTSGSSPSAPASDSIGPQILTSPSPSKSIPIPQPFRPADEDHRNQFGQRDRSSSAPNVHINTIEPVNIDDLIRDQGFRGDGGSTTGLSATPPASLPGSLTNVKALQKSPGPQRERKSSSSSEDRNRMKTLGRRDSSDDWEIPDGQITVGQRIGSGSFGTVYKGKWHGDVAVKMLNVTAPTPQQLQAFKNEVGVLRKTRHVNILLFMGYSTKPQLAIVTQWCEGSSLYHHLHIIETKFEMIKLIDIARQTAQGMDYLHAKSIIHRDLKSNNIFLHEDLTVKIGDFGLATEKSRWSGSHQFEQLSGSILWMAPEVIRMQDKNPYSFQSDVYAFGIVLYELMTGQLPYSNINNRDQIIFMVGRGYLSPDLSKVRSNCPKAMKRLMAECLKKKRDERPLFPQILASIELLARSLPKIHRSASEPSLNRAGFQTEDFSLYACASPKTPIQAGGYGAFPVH
As for `COc1ccc(NC(=O)c2ccc(C)c(Nc3ncnc4cnc(N5CCN(CCCN6CCCC6)CC5)nc34)c2)cc1C(F)(F)F` [III-553], inhibition was half-maximal at 2 nM (IC50).

Take `COc1ccc(NC(=O)c2ccc(C)c(Nc3ncnc4cnc(N5CCN(CC6CCCN(C)C6)CC5)nc34)c2)cc1C(F)(F)F` (centres unmarked) [III-554]: the IC50 (as a rule, the concentration needed to halve the response being measured) was determined as 3 nM. With `COc1ccc(NC(=O)c2ccc(C)c(Nc3ncnc4cnc(N5CCN6CCCCC6C5)nc34)c2)cc1C(F)(F)F` (centres unmarked) [III-555] the figure was 18 nM. With `COc1ccc(NC(=O)c2ccc(C)c(Nc3ncnc4cnc(N5CCC(N6CCCCC6)CC5)nc34)c2)cc1C(F)(F)F` [III-556], the IC50 worked out at 7 nM.

Consider `COc1ccc(NC(=O)c2ccc(C)c(Nc3ncnc4cnc(N5CCN(C6CCN(C)CC6)CC5)nc34)c2)cc1C(F)(F)F` [III-557], for which half-maximal inhibition (IC50) required 4 nM. For `COc1ccc(NC(=O)c2ccc(C)c(Nc3ncnc4cnc(N5CCC(N6CCOCC6)CC5)nc34)c2)cc1C(F)(F)F` [III-558], it took 23 nM to reach half-maximal inhibition (IC50). The compound `COc1ccc(NC(=O)c2ccc(C)c(Nc3ncnc4cnc(N5CCC(N6C[C@@H](C)O[C@@H](C)C6)CC5)nc34)c2)cc1C(F)(F)F` [III-559] yielded an IC50 of 14 nM.

For `COc1ccc(NC(=O)c2ccc(C)c(Nc3ncnc4cnc(N5CCC(N6CCCC6)CC5)nc34)c2)cc1C(F)(F)F` [III-560], the IC50 is 7 nM.

With `CCN1CCN(c2ncc3ncnc(Nc4cc(C(=O)Nc5ccc(OC)c(C(F)(F)F)c5)ccc4C)c3n2)CC1` [III-561], the IC50 came to 9 nM. For the compound `COc1ncc2ncnc(Nc3cc(C(=O)Nc4cc(C(C)(C)C)nn4C)ccc3C)c2n1` [III-565], the IC50 stood at 11 nM.

Regarding `COc1ncc2ncnc(Nc3cc(C(=O)Nc4cc(N5CCN(C(C)C)CC5)cc(C(F)(F)F)c4)ccc3C)c2n1` [III-567], the midpoint of inhibition, the IC50, lay at 2 nM. In turn, `COc1ncc2ncnc(Nc3cc(C(=O)Nc4cccc(C(F)(F)F)c4)ccc3C)c2n1` [III-568] had an IC50 of 1 nM. With `COc1ncc2ncnc(Nc3cc(C(=O)Nc4ccc(OC)c(C(F)(F)F)c4)ccc3C)c2n1` [III-569] the figure was 2 nM; with `COc1ncc2ncnc(Nc3cc(C(=O)Nc4cccc(C(C)(C)C)c4)ccc3C)c2n1` [III-570], < 1 nM. To `COc1ncc2ncnc(Nc3cc(C(=O)Nc4cc(N(C)CCN(C)C)cc(C(F)(F)F)c4)ccc3C)c2n1` [III-571] belongs 2 nM. As to `COc1ncc2ncnc(Nc3cc(C(=O)Nc4cc(CN5CCCC5)cc(C(F)(F)F)c4)ccc3C)c2n1` [III-572], 1 nM corresponded to half-maximal inhibition (IC50). To `COc1ncc2ncnc(Nc3cc(C(=O)Nc4cc(C(C)(C)C)n[nH]4)ccc3C)c2n1` [III-575] belongs 3 nM; to `COc1ncc2ncnc(Nc3cc(C(=O)Nc4cc(C(C)(C)C)on4)ccc3C)c2n1` [III-577], 2 nM.

On to `Cc1ccc(C(=O)Nc2cc(C(C)(C)C)on2)cc1N(C)c1ncnc2cnc(N3CCOCC3)nc12` [III-580], for which half-maximal inhibition (IC50) was put at 28 nM.

As to `Cc1ccc(C(=O)Nc2cc(C(C)(C)C)on2)cc1N(C)c1ncnc2cnc(NC3CCOC3)nc12` (centres unmarked) [III-581], the IC50 stood at 33 nM.

With `COCCN1CCN(c2ncc3ncnc(N(C)c4cc(C(=O)Nc5cc(C(C)(C)C)on5)ccc4C)c3n2)CC1` [III-582], 74 nM corresponded to half-maximal inhibition (IC50). In turn, `Cc1ccc(C(=O)Nc2cc(C(C)(C)C)on2)cc1N(C)c1ncnc2cnc(N3CC[C@H](F)C3)nc12` [III-583] showed an IC50 of 32 nM. `COc1ccc(NC(=O)c2ccc(C)c(N(C)c3ncnc4cnc(N5CCOCC5)nc34)c2)cc1C(F)(F)F` [III-584] gave an IC50 of 18 nM.

With `COc1ccc(NC(=O)c2ccc(C)c(N(C)c3ncnc4cnc(NC5CCOC5)nc34)c2)cc1C(F)(F)F` (centres unmarked) [III-585], inhibition was half-maximal at 27 nM (IC50). Regarding `COCCN1CCN(c2ncc3ncnc(N(C)c4cc(C(=O)Nc5ccc(OC)c(C(F)(F)F)c5)ccc4C)c3n2)CC1` [III-586], the midpoint of inhibition, the IC50, lay at 193 nM. `COc1ccc(NC(=O)c2ccc(C)c(N(C)c3ncnc4cnc(N5CC[C@H](F)C5)nc34)c2)cc1C(F)(F)F` [III-587] showed an IC50 of 65 nM.

These data come from US8653087B2, “Pyrido [5, 4-D] pyrimidines as cell proliferation inhibitors” (Boehringer Ingelheim International GmbH, priority 2008, dated 2014).
